The results in this text go back to patent publication US7271239B2, “D-isomers of antimicrobial peptide” (The Research Foundation of State University of New York, priority 2004, dated 2007).

≈ marks a conversion by molar mass, not a printed value. Where two headings read alike, the source gives them in different places. Where a SMILES comes first, the peptide text is derived from it.

The test system of assay [1] is A. actinomycetemcomitans NCTC 9710. Briefly: microbe, parasite or virus in culture. In kind it is cell-based. An excerpt: (§1) The bacteria used in this study included Streptococcus mutans ATCC10449, Streptococcus mutans AU 159, Streptococcus mutans GS-5, Streptococcus mutans GS-5 mutant (^gtf BCD), Streptococcus gordonii Challis, Porphyromonas gingivalis W50, Porphyromonas gingivalis 381, A. actinomycetemcomitans NCTC 9710, Pseudomonas aeruginosa ATCC 17648, and Escherichia coli HB101. One quarter strength (25%) of brain heart infusion broth (BHI, DIFCO Laboratories, Detroit, Mich.) was used for the growth of S. mutans, S. gordonii, A. actinomycetemcomitans, Ps. aeruginosa, and E. coli. For growth of P. gingivalis, tryptic soy broth-yeast extract medium (TSBY, DIFCO Laboratories, Detroit, Mich.) supplemented with cysteine hydrochloride (0.05%), menadione (0.02 μg/ml), hemin (5 μg/ml), and potassium nitrate (0.02%) was used. All bacteria were cultured at 37° C.; Ps. aeruginosa and E. coli were grown aerobically, and the other bacteria, anaerobically. To prepare bacterial cell suspension for antibacterial activity assays, each overnight culture was harvested by centrifuge (3783 g, 10 min), washed once with 10 mM sodium phosphate-buffered saline (PBS, pH 7.2), resuspended in PBS and adjusted to a concentration of 1×10^6 cells/mL.
(§2) MICs of the peptides were determined by broth microdilution method as previously described (5). Briefly, two-fold serial dilutions of each peptide were prepared with 25% BHI medium at a volume of 200 μl per well in 96-well flat-bottom microtiter plates (Costar, Cambridge, Mass.). The final concentration of the peptides ranged from 0.78 to 100 μM, and chlorhexidine (CHX), used as a positive control, from 20 to 0.16 μM (10 to 0.078 μg/mL). The microtiter plate was inoculated with bacterial cell suspension with final concentration of 5×10^6 CFU/mL for P. gingivalis and 5×10^5 CFU/mL for the other bacterial species. After incubation at 37° C. for 48 h, the absorbance was measured at 595 nm by using a microplate reader (Model 3550, Bio-Rad, Japan) to assess the cell growth. […] The MIC value represents the median of at least three independent experiments. The minimal bactericidal concentration (MBC) was determined as follows. Aliquot (100 μl) of cell suspension was taken from two wells above MIC, centrifuged, and washed three times with PBS. Then each cell suspension was plated on TSBY agar plate, and bacterial cells were enumerated after incubation at 37° C. for 48 h. The MBC was defined as the lowest concentration of the peptide at which more than 99.9% of cells were killed compared to non-treated control.

For assay [2], the system named is S. mutans GS-5 biofilm. In kind it is cell-based, Streptococcus mutans. The protocol: FIG. 11. Effect of peptides on the biofilm formation of S. mutans. The bacterial cells (5×10^5 cfu ml^−1) were inoculated in 96-well microtiter plate containing 25% BHIS medium with different concentration of each agent. Culture without agent was used as no treatment control. After incubation at 37° C. for 24 h, absorbance at 595 nm was recorded to assess the cell growth. Biofilm assay was performed by discarding the supernatants, washing with PBS, fixing with methanol, and staining with CV. The absorbance at 570 nm was recorded to assess the amount of biofilm. The activity was expressed as % of control. Data represents mean and SD of two independent tests with duplicates for each. Empty bar: growth, solid bar: biofilm.
The effect of the peptides on S. mutans in biofilm formation was examined by the microdilution method. This method is similar to the MIC assay for planktonic cells. Two-fold serial dilutions of each peptide were prepared in wells of polystyrene microtiter plates (Microtest tissue culture plate, 96 well, Falcon, Becton Dickinson and Company, N.J.) containing 25% BHI medium supplemented with 1% sucrose (BHIS) at a volume of 200 μl per well. The final concentration of the peptide ranged from 0.78 to 100 μM for each peptide. Chlorhexidine (CHX, 0.078 to 10 μg/mL) was used as the positive control, the medium without drug as the non-treated control, and the medium alone as the blank control. The cells suspension of S. mutans GS-5 was prepared as describe in MIC assay and 20 μl aliquot (final concentration of cells 5×10^5 CFU/mL) was inoculated to the wells of polystyrene microtiter plates. After incubation at 37° C. for 20 h, the culture supernatants from each well were decanted and planktonic cells were removed by washing with PBS, pH 7.2. The biofilm was fixed with methanol for 15 min and then air dried at room temperature. The biofilm was then stained with 0.1% (wt/vol) crystal violet (Sigma) for 5 min. and rinsed thoroughly with water until the control wells appeared colorless. Biofilm formation was quantified by the addition of 200 μl of 95% ethanol to each crystal violet-stained well. The plate was rocked at room temperature for 30 min and the absorbance at 595 nm (A595 nm) was determined with a microplate reader (BioRad Model 3550 Microplate Reader). Percentage of inhibition was calculated with the equation: (1−A595 nm of the test/A595nm of non-treated control)×100.

Assay [3] has as its system P. gingivalis. Kind of assay: microbe, parasite or virus in culture. In kind it is cell-based, Porphyromonas gingivalis.
From the text: as §1, §2

Assay [4] deals with S. mutans. Briefly: microbe, parasite or virus in culture. Conditions: median of four strains.
From the text: as §1, §2

Assay [5] relates to S. mutans GS-5. Briefly: Time-kill assay. In kind it is cell-based, Streptococcus mutans. The settings on record: after 4 h incubation, each agent at its MIC. The protocol:
FIG. 10. Time-Killing curves for S. mutans. […] Control (▪), MUC7 12-mer-L (Δ), MUC7 12-mer-D (□), MUC7 20-mer (▴), Hsn5 12-mer (×), magainin II (●), chlorhexidine (◯).
For the peptides MUC7 12-mer-L, MUC7 12-mer-D, and MUC7 20-mer, time-kill kinetic studies against S. mutans were performed by the broth macrodilution method. S. mutans GS-5 (1×10^6 CFU/ml) and antibacterial agens (find concentrations of 12.5 μM for each peptide, and 2 μM for CHX; their MICs) were incubated in 25% BHI at 37° C. At the time of 0, 1, 2, 4, 8, and 24 h, samples were taken and viable counts determined as follows: The samples were serially diluted (10^−1 to 10^−4) in sterile 10 mM PBS (pH 7.2) and 50 μl aliquots were plated onto TSBY agar. The plates were incubated anaerobically at 37° C. for 48 h, followed by enumerating the CFU. Killing curves were constructed by plotting the log10 CFU per milliliter versus time over 24 h. All assays were done in duplicate on at least two occasions.

For assay [6], the system named is S. mutans GS-5 1-day biofilm. In kind it is cell-based, Streptococcus mutans. The protocol:
FIG. 12. Effect of peptides on 1-day biofilm of S. mutans. One-day mature biofilm was prepared as described above. BHI medium supplemented with 1% sucrose (BHIS) with peptides, prepared in another microtiter plate, was then transferred to the biofilm plate. After further incubation at 37° C. for 24 h, the biofilm was fixed, stained, and quantified as describe above. Data represents mean and SD of two independent tests performed in duplicated. Empty bar: growth, solid bar: biofilm.
To examine the effects of the peptides on 1-day mature biofilm, S. mutans GS-5 was inoculated into the wells of another polystyrene microtiter plate containing BHIS at a volume of 200 μl per well. After incubation at 37° C. for 24 h, the culture supernatants from each well were decanted and planktonic cells were removed by washing with PBS. BHIS containing 0.78 to 100 μM peptides, prepared in another microtiter plate, was then transferred to the 1-day biofilm plate, and further incubated at 37° C. for one day. The biofilm was fixed, stained, and quantified as describe above.

In assay [7] the test system is S. gordonii Challis. Briefly: microbe, parasite or virus in culture. In kind it is cell-based, Streptococcus gordonii.
From the text: as §1, §2

Assay [8] deals with Ps. aeruginosa ATCC 17648. Briefly: microbe, parasite or virus in culture. In kind it is cell-based, Pseudomonas aeruginosa. The settings on record: ATCC 17648.
From the text: as §1, §2

The subject of assay [9] is E. coli HB101. Briefly: microbe, parasite or virus in culture. In kind it is cell-based, Escherichia coli.
From the text: as §1, §2

As for `CC[C@H](C)[C@H](NC(=O)[C@H](Cc1ccccc1)NC(=O)[C@@H]1CCCN1C(=O)[C@H](CCCCN)NC(=O)[C@H](CCC(N)=O)NC(=O)[C@H](Cc1c[nH]cn1)NC(=O)[C@H](C)NC(=O)[C@@H](N)CC(C)C)C(=O)N[C@@H](CCCNC(=N)N)C(=O)N[C@@H](CCCCN)C(=O)N[C@@H](CO)C(=O)N[C@@H](Cc1ccc(O)cc1)C(=O)N[C@@H](CCCCN)C(=O)N[C@@H](CS)C(=O)N[C@@H](CC(C)C)C(=O)N[C@@H](Cc1c[nH]cn1)C(=O)N[C@@H](CCCCN)C(=O)N[C@@H](CCCNC(=N)N)C(=O)N[C@@H](CS)C(=O)N[C@@H](CCCNC(=N)N)C(=O)O` [MUC7 20-mer] (H-LAHQKPFIRKSYKCLHKRCR-OH; N-terminus and C-terminus assumed), the “MBC (μg/ml)” value in assay [1] is 251.3 µg/mL (≈ 100 µM); in assay [4] it was 31.4 µg/mL (≈ 12.5 µM); in assay [7], 62.8 µg/mL (≈ 25 µM); in assay [8], above 251 µg/mL. Moreover, the “MIC (μg/ml)” value is 251.3 µg/mL (≈ 100 µM) in assay [1], above 251 µg/mL in [3], 31.4 µg/mL (≈ 12.5 µM) in assay [7] and above 251 µg/mL in assay [8]. Also, the “MBC (μM)” value in [1] (NCTC 9710) was 100.0 µM (≈ 251 µg/mL); in assay [4] it was 12.5 µM (≈ 31.4 µg/mL); in assay [7], 25.0 µM (≈ 62.8 µg/mL); in assay [8], above 100 µM; in assay [9], 100.0 µM (≈ 251 µg/mL). The “MIC (μM)” value was 100.0 µM (≈ 251 µg/mL) in [1] (NCTC 9710); above 100 µM in [3]; 12.5 µM (≈ 31.4 µg/mL) in [7]; above 100 µM in assay [8]; 100.0 µM (≈ 251 µg/mL) in assay [9]. In addition, the “MBIC50” value worked out at 15.5 µg/mL in assay [2] and 6.25 µM in assay [2] (GS-5 biofilm, 24 h). Also, in [5], the “reduction of the viable counts of S. mutans” value is on record as 2 log10. Moreover, the “MBEC50 (μg/ml)” value in assay [6] is 62 µg/mL. Moreover, the “MBEC50 (μM)” value in assay [6] (GS-5 1-day biofilm, 24 h) came to 25 µM. For the same compound, the “eradication of 1-day developed biofilm” value in [6] (at or more than MBEC50) is recorded as “reduction of biofilm was observed”.
